Like-named read-outs stand apart in the source and are kept apart here.
Tests used:
[1] = biological target: T1, Estrogen Receptor ERα (Homo sapiens, UniProt P03372); test: cell-based; details: for EC10, ERα (M): 10% of maximum effect of E2; for SR-ScoreERα: SR-Score, sigma k=1, x=5; for Efficacy % / EC10 / REPBPA: This Study; for EC10: ERα; for REPBPA: relative estrogenic potency vs BPA; for Specificity ratio (SRbaseline) SRERα: against baseline cytotoxicity; for log(1/EC10) ERα: input of the ToxPi score, values up to 1.00; for Relative effect potency REPERα: relative to BPA
T1 sequence (P03372 311-547 limits assumed): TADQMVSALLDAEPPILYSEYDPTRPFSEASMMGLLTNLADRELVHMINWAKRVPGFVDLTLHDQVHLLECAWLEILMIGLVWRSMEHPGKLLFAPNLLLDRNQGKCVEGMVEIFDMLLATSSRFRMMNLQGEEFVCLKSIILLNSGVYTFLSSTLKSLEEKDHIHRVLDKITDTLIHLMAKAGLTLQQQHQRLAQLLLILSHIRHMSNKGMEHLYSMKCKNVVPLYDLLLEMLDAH
How it was run: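 ERα-UAS-bla GripTite and PPARγ-UAS-bla β-lactamase reporter cells were seeded and held 24 h at 37 °C, 5% CO₂ before dosing. EC10 values used only concentrations below the IC10 from IncuCyte confluency. Emax% is the log-logistic curve maximum relative to the reference chemical's maximum.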

[2] = biological target: T1, Estrogen Receptor ERα; test: aCYP oxidation followed by ERα-UAS-bla GripTite assay (TK-Ratio of effect); type: cell-based; details: for EC10, before oxidation / EC10, after oxidation: ERα; for EC10, after oxidation: after abiotic CYP catalyst; for TKERα: TKERα-Ratio
Protocol: Cell culture conditions and bioassay protocols including response detection are provided in Text S2.1–2.4 and Table S3. − Cell viability was determined from cell confluency using an IncuCyte S3 Live-Cell Analysis System (Sartorius AG, Essen, Germany) before and after exposure, except for SH-SY5Y cells (live–dead staining with Nuclear Green LcS1 and propidium iodide, Abcam, UK). For metabolic activation experiments, cell viability was assessed using the ToxBLAzer DualScreen Kit (Thermo Fisher Scientific) to capture the remaining toxicity in ERα-UAS-bla GripTite after treatment with the aCYP catalyst (details in Text S2.4). […]
The TK-Ratio method was used to evaluate the impact of abiotic CYP oxidation on the potency of tested compounds. […]
For experiments with the preceding aCYP activation, ERα cell viability was additionally calculated from the readout of the ToxBLAzer reagent. The ToxBLAzer assay was conducted following the manufacturer's instructions (Thermo Fisher, Waltham, MA, U.S.).13 Fluorescence intensity was recorded at the start of the assay ( Fwavelength(0h)) and after a 2-hour incubation at […]
Cell viability was assessed based on the red fluorescence signal at 665 nm, applying eq. S11 for normalization.
Cell viability = F665nm(2h, sample)-F665nm(0h, average cell-free) (S11) F665nm(2h, average unexposed)-F665nm(0h, average cell-free) […]
the specific endpoint to avoid artifacts from cytotoxicity burst. 15
S2.5: Concentration-response curves (CRCs)
To avoid bias from cytotoxicity burst at higher concentrations, all concentrations exceeding the IC10 for cytotoxicity were excluded in the CRC modeling of effects but otherwise cytotoxicity and effects were fitted with the same model equations (response stands for cytotoxicity or effect). For ERα, AhR, ARE and PPARγ preferably a linear model was fitted to the linear portion of CRC up to maximum 30% effect (eq. S12),16 but in some cases it was necessary to choose a sigmoidal log-concentration-response model, specifically a log-logistic model (eq. S13), to derive effect concentrations and cytotoxicity. For mitochondrial toxicity and neurotoxicity, the […]
are not reporter gene assays. Common practice when using log-logistic models, e.g., the model implemented in tcpl package in R,17, 18 is that the minima and maxima are also fitted and only median effect concentrations AC50 are derived. […]
concentrations (EC10) for both linear and log-sigmoidal CRCs to allow absolute comparisons at the same effect level and for TR and SR -analysis. This was done using the AutomatedBioassayScreening19 published by Braun et al.,20 which also included an algorithm to choose the best model between eq. S12 and eq. S13.
Response (%) = slope × C (S12) […]
logEC =logEC − 1 ∙log (max−min − 100%) (S14)

[3] = Abiotic CYP (aCYP) oxidation, remaining parent compound (Cparent-Ratio); details: for Cparent-Ratio Rep.1 %: Table S9, replicate 1; for Cparent-Ratio Rep.2 %: Table S9, replicate 2; for reduction of C parent after aCYP oxidation: 15 min, 30 °C
[4] = Table S9, loss of parent after aCYP oxidation
[5] = Table S9, mean of two replicate experiments
[6] = Table S9, replicate 1, as fraction
[7] = Table S9, replicate 2, as fraction
[8] = Bioassay ERα, dosing range high, in M
[9] = Bioassay ERα, dosing range high, linear model fit, in M
[10] = Bioassay ERα, dosing range high, log-logistic model fit
[11] = Bioassay ERα, dosing range low, in M
[12] = Bioassay ERα, dosing range low, linear model fit, in M
[13] = Bioassay ERα, dosing range low, log-logistic model fit
[14] = Table S11, measured simultaneously with bioassay
[15] = Bioassay ERα, dosing range all, in M
[16] = Bioassay ERα, dosing range all, linear model fit, in M
[17] = Bioassay ERα, dosing range all, log-logistic model fit
[18] = against experimental cytotoxicity

Structure (SMILES) | EC10, ERα (M) [1] | SR-ScoreERα [1] | Efficacy % [1] [%] | EC10 ([1]; in M) | REPBPA [1] | Specificity ratio (SRbaseline) SRERα [1] | EC10, ERα ([1]; effect) [µM] | log(1/EC10) ERα [1] | Relative effect potency REPERα [1] | EC10, before oxidation ([2]; Table S10, in M) | % Loss [3, 4] [%] | Cparent-Ratio Mean [3, 5] | Cparent-Ratio Rep.1 % [3] [%] | Cparent-Ratio Rep.1 [3, 6] | Cparent-Ratio Rep.2 % [3] [%] | Cparent-Ratio Rep.2 [3, 7] | EC10, after oxidation ([2]; Table S10, in M) | TKERα ([2]; Table S10) | % Loss ([3]; Table S11) [%] | logEC10 [1, 17] | further results
CC1(C)C(O)C(C)(C)C1O (racemic) [r-TMCD, 2,2,4,4-Tetramethyl-1,3-cyclobutanediol (racemate)] | 1.29 × 10^–2 M | 0.00722 | <20 | 1.29E-02 | 2.88E-05 | 0.08 | 12900 | 0.24 | 2.88e-5 | 1.18E-02 | 1.72 | 0.98 | 94.58 | 0.95 | 101.99 | 1.02 |  |  |  |  | REPBPA,ERα (relative effect potency in relation to BPA) ([1]; EC10,BPA/EC10,BPx): 2.9 × 10^–5; EC10, linear transformed ([1]; ERα bioassay, dosing range all, in M): 1.18E-02; EC10, linear ([1]; ERα bioassay, dosing range all, linear model, in M): 1.29E-02; logEC10 ([1]; ERα bioassay, dosing range all, log-logistic model): -1.93
CC(C)(c1ccc(O)cc1)c1ccc(O)cc1 [BPA, 4,4'-(Propane-2,2-diyl)diphenol, reference compound] | 3.70 × 10^–7 M | 1.00 | 37.53 | 3.70E-07 | 1.00E+00 | 31.86 | 0.37 | 0.82 | 1.00 | 3.70E-07 | 15 | 0.85 | 86.04 | 0.86 | 84.76 | 0.85 | 4.48E-07 | 0.827 | 11 |  | EC10, ERα [1]: 0.37 µM; EC10, linear transformed [1, 8]: 1.46E-07; EC10, linear [1, 9]: 1.81E-07; logEC10 [1, 10]: -7.06; EC10, linear transformed [1, 11]: 3.70E-07; EC10, linear [1, 12]: 2.69E-07; logEC10 [1, 13]: -6.43; SRcytotoxicity (ERα) ([1]; human, 24 h): 115; Specificity ratio (SRcytotoxicity) SRERα ([1]; human, 24 h): 115.28; times less potent than the reference estradiol (E2) ([1]; ratio of EC10): 18700; Emax ([1]; read-out: Emax%ERα): 38%; estrogenic activity after aCYP oxidation [2]: remained unchanged or decreased; EC10, after oxidation ([2]; Table S11, in M): 3.06E-07; EC10, before oxidation ([2]; Table S11, in M): 3.74E-07; TKERα ([2]; Table S11): 1.22; reduction of C parent after aCYP oxidation [3]: 15%; Cparent-Ratio Mean [3, 14]: 0.89; Cparent-Ratio Rep.1 [3, 14]: 0.90; Cparent-Ratio Rep.2 [3, 14]: 0.88
CC(C)c1cc(C(C)(C)c2ccc(O)c(C(C)C)c2)ccc1O [BPG, 2,2-Bis(4-hydroxy-3-isopropylphenyl)propane] | 9.02 × 10^–7 M | 0.94 | 19.01 | 9.02E-07 | 4.11E-01 | 1.60 | 0.902 | 0.77 | 0.41 | 9.02E-07 | 15 | 0.85 | 67.85 | 0.68 | 102.05 | 1.02 | 3.40E-06 | 0.2649 | 34 | -6.04 | EC10, linear transformed [1, 15]: 9.02E-07; EC10, linear [1, 16]: 9.31E-07; Specificity ratio (SRcytotoxicity) SRERα [1, 18]: 7.71; Emax ([1]; read-out: Emax%ERα, maximum efficacy relative to E2): 19%; EC10, after oxidation ([2]; Table S11, in M): 1.51E-05; EC10, before oxidation ([2]; Table S11, in M): 9.71E-06; TKERα ([2]; Table S11): 0.64; Cparent-Ratio Mean [3, 14]: 0.66; Cparent-Ratio Rep.1 [3, 14]: 0.79; Cparent-Ratio Rep.2 [3, 14]: 0.53
C=CCOc1ccc(S(=O)(=O)c2ccc(O)cc2)cc1 [BPS-MAE, 4-[[4-(Allyloxy)phenyl]sulfonyl]phenol] | 1.41 × 10^–5 M | 1.00 |  | 1.41E-05 | 2.63E-02 |  | 14.1 | 0.62 |  | 1.26E-05 | 1.47 |  |  |  |  |  | 1.28E-05 | 0.9842 |  | -4.90 | EC10, linear transformed [1, 15]: 1.26E-05; EC10, linear [1, 16]: 1.41E-05
Oc1ccc(Sc2ccc(O)cc2)cc1 [BPT, 4,4'-Thiodiphenol] | 7.27 × 10^–7 M | 1.00 |  | 7.27E-07 | 5.09E-01 |  | 0.727 | 0.78 |  | 2.87E-07 | 71 |  |  |  |  |  | 1.15E-06 | 0.2502 | 87 | -6.54 | EC10, linear transformed [1, 15]: 2.87E-07; EC10, linear [1, 16]: 7.27E-07; EC10, after oxidation ([2]; Table S11, in M): 2.70E-06; EC10, before oxidation ([2]; Table S11, in M): 2.28E-06; TKERα ([2]; Table S11): 0.85
Cc1ccc(S(=O)(=O)NC(=O)Nc2ccc(Cc3ccc(NC(=O)NS(=O)(=O)c4ccc(C)cc4)cc3)cc2)cc1 [BTUM, 4,4'-Bis(p-tolylsulfonylureido)diphenylmethane] |  |  |  |  |  |  |  |  |  |  | 70 | 0.30 | 26.78 | 0.27 | 33.79 | 0.34 |  |  | 79 | no effect | EC10, linear ([1]; Bioassay ERα, dosing range all, linear model fit): no effect; ERα activation ([1]; at noncytotoxic concentrations): did not activate ERα at noncytotoxic concentrations; EC10, before oxidation ([2]; Table S10): no effect; EC10, after oxidation ([2]; Table S10): no effect; outcome of aCYP experiments ([2]; both experimental setups): inconclusive results; reduction of C parent after aCYP oxidation [3]: 70%; Cparent-Ratio Mean [3, 14]: 0.21; Cparent-Ratio Rep.1 [3, 14]: 0.23; Cparent-Ratio Rep.2 [3, 14]: 0.18
COC(=O)C(c1ccc(O)cc1)c1ccc(O)cc1 [Bz, Methyl bis(4-hydroxyphenyl)acetate] | 1.06 × 10^–6 M | 1.00 | 32.40 | 1.06E-06 | 3.49E-01 | 245.73 | 1.06 | 0.76 | 0.35 | 9.90E-07 | -7 | 1.07 | 113.92 | 1.14 | 100.34 | 1.00 | 1.36E-06 | 0.7263 |  |  | EC10, linear transformed [1, 8]: 1.23E-08; EC10, linear [1, 9]: 7.84E-07; logEC10 [1, 10]: -6.83; EC10, linear transformed [1, 11]: 9.90E-07; EC10, linear [1, 12]: 1.06E-06; logEC10 [1, 13]: -6.00; SRcytotoxicity (ERα) ([1]; IC10/EC10): 957; Specificity ratio (SRcytotoxicity) SRERα [1, 18]: 956.87; Emax ([1]; read-out: Emax%ERα): 32%
